SMILES strings stand for the structures. Where a name gives a salt, the structure may show the parent alone.

Sequence of mouse SPNS2 (Q91VM4 whole entry): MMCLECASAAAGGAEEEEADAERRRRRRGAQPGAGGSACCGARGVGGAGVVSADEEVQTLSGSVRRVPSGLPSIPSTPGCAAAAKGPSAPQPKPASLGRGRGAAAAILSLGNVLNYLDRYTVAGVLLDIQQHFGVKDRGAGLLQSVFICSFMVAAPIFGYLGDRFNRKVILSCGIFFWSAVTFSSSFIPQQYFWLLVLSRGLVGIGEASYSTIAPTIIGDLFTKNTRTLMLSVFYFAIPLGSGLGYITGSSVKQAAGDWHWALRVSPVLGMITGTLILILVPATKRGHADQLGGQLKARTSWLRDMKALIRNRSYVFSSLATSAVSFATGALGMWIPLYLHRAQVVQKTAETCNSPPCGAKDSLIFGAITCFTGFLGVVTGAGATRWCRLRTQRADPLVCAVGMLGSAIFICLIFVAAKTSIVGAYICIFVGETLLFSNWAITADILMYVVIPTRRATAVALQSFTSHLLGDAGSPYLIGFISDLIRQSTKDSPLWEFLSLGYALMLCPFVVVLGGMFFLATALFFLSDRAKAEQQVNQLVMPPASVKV

This assay concerns the target mouse SPNS2 (Mus musculus (Mouse), UniProt Q91VM4). In words: S1P Transporter Assay (S1P release from whole cells expressing SPNS2). In kind it is cell-based. The following applies: in vitro inhibition against SPNS2; HeLa cells expressing mouse SPNS2, S1P release into media after 18 hours; compounds as their pharmaceutical salts. The procedure:
Transporter assays are vectorial and therefore require measurement of the transported analyte in different compartments. The S1P transporter SPNS2 only exports S1P, which obviates measuring uptake of S1P into transporter-expressing cells. Thus, transporter activity was determined by quantifying S1P release from whole cells expressing SPNS2. SPNS2 inhibitor potency was assessed using whole cell assays. HeLa cells expressing mouse SPNS2 were used to determine inhibitor potency (IC50). Cells were plated onto 12 well plates and assayed when the cell monolayers became confluent. Cell growth media (RPMI-1640 containing 10% fetal bovine serum) was replaced with 2 mL of serum-free media (RPMI-1640) containing fatty acid free bovine serum albumin (BSA) (0.2 % w/v) and supplemented with 4-deoxypyridoxine (DOP) (1 mM), NaF (2 mM), Na3VO4 (0.2 mM) to inhibit S1P degradation. Test articles (1 × 10-9 - 1 × 10^-4 M) were assayed in duplicate or triplicate. After 18 hours, media was collected, an internal recovery standard (0.005 mL of 5 × 10^-7 M deuterated (d7) S 1P in methanol) was added, the BSA was precipitated with trichloroacetic acid and the bound S1P extracted with methanol. S1P and S1P-d7 were measured by liquid chromatography mass spectrometry. Inhibitor potency at the human SPNS2 ortholog was determined by an analogous assay using U-937 cells, which endogenously express human SPNS2.
As usually defined, the IC50 is the concentration at which inhibition is half-maximal. Regarding `CCCCCCCCCCc1ccc2oc(NCCN)nc2c1` [Compound 13c, N^1-decylbenzo[d]oxazol-2-yl)ethane-1,2-diamine hydrochloride], the IC50 is over 2 µM.

Take `CCCCCCCCCCc1ccc2nc(NCCN)sc2c1` [Compound 17a, N^1-decylbenzo[d]thiazol-2-yl)ethane-1,2-diamine hydrochloride]: the IC50 was over 2 µM.

With `CCCCCCCCCCc1ccc(NC(=O)O[C@@H]2CCNC2)cc1` [Compound 23c, (R)-pyrrolidin-3-yl (4-decylphenyl)carbamate Hydrochloride], the IC50 was at most 2 µM.

In the case of `CCCCCCCCCCc1ccc(NC(=O)[C@@H]2CCCN(C(=N)N)C2)cc1` [Compound 4a, (R)carbamimidoyl-N-(4-decylphenyl)piperidine-3-carboxamide 2,2,2-trifluoroacetate], the IC50 was at most 2 µM.

With `CCCCCCCCCCc1ccc(NC(=O)CCCNC)cc1` [Compound 2n, N-decylphenyl)-4-(methylamino)butanamide Hydrochloride], the IC50 was over 2 µM.

As to `CCCCCCCCCCc1cccc2oc(NCCCN)nc12` [Compound 13x, N^1-decylbenzo[d]oxazol-2-yl)propane-1,3-diamine hydrochloride], the IC50 is over 2 µM.

Take `CCCCCCCCCCc1ccc(NC(=O)CCCN)cc1` [Compound 2c, 4-amino-N-(4-decylphenyl)butanamide Hydrochloride]: the IC50 was at most 2 µM.

As to `CCCCCCCCc1ccc(NC(=O)CCCN)cc1` [Compound 2h, 4-amino-N-(4-octylphenyl)butanamide Hydrochloride], the IC50 was over 2 µM.

On to `CCCCCCCCCCc1cccc2nc(NCCN)oc12` [Compound 13u, N^1-decylbenzo[d]oxazol-2-yl)ethane-1,2-diamine hydrochloride], for which the half-inhibitory concentration (IC50) is over 2 µM.

`CCCCCCCCCCc1ccc(NC(=O)C2CCNCC2)cc1` [Compound 2o, N-decylphenyl)piperidine-4-carboxamide Hydrochloride]: the IC50 is over 2 µM.

As to `CCCCCCCCCCc1ccc(NC(=O)CCN)cc1` [Compound 2d, 3-amino-N-(4-decylphenyl)propanamide Hydrochloride], the IC50 is at most 2 µM.

Take `CCCCCCCCCCc1ccc2nc(CCCN)[nH]c2c1` [Compound 31, 3-decyl-1H-benzo[d]imidazol-2-yl)propan-1-amine Hydrochloride]: the IC50 is over 2 µM.

`CCCCCCCCCCc1ccc2nc(CCN)oc2c1` [Compound 8d, 2-Decylbenzo[d]oxazol-2-yl)ethan-1-amine Hydrochloride]: the half-maximal inhibitory concentration (IC50) is over 2 µM.

`CCCCCCCCCCc1ccc2nc(N3CC[C@@H](N)C3)oc2c1` [Compound 13aa, (R)(6-decylbenzo[d]oxazol-2-yl)pyrrolidin-3-amine Hydrochloride]: the IC50 was over 2 µM.

As to `CCCCCCCCCCc1ccc2oc(CCCCCN)nc2c1` [Compound 8c, 5-Decylbenzo[d]oxazol-2-yl)pentan-1-amine Hyrdrochloride], the IC50 is over 2 µM.

For `CCCCCCCCCCc1ccc(C(=O)NCCCN)cc1` [Compound 26d, N-aminopropyl)-4-decylbenzamide Hydrochloride], the IC50 is at most 2 µM.

Take `CCCCCCCCCCc1ccc2oc(N3CC[C@@H](N)C3)nc2c1` [Compound 13o, (R)(5-decylbenzo[d]oxazol-2-yl)pyrrolidin-3-amine Hydrochloride]: the IC50 is over 2 µM.

For the compound `CCCCCCCCCCc1ccc2nc(NCCN)oc2c1` [Compound 13q, N^1-decylbenzo[d]oxazol-2-yl)ethane-1,2-diamine hydrochloride], the IC50 is over 2 µM.

For `CCCCCCCCCCc1ccc2nc(NC3CCNCC3)oc2c1` [Compound 13ab, 6-decyl-N-(piperidin-4-yl)benzo[d]oxazol-2-amine Hydrochloride], the IC50 is at most 2 µM.

With `CCCCCCCCCCc1ccc(NC(=O)[C@@H]2CCCNC2)cc1` [Compound 2a], the IC50 is over 2 µM.

Turning to `CCCCCCCCCCc1ccc2nc(NCCCN)oc2c1` [Compound 13r, N^1-decylbenzo[d]oxazol-2-yl)propane-1,3-diamine hydrochloride], the concentration for half-maximal inhibition (IC50) is over 2 µM.

For `CCCCCCCCCCc1ccc2nc(N3CC[C@H](N)C3)oc2c1` [Compound 13z, (S)(6-decylbenzo[d]oxazol-2-yl)pyrrolidin-3-amine Hydrochloride], the IC50 was over 2 µM.

With `CCCCCCCCCc1ccc2oc(NCCN)nc2c1` [Compound 13b, N^1-nonylbenzo[d]oxazol-2-yl)ethane-1,2-diamine hydrochloride], the IC50 was over 2 µM.

`CCCCCCCCCc1ccc(NC(=O)CCCN)cc1` [Compound 2g, 4-amino-N-(4-nonylphenyl)butanamide Hydrochloride]: the IC50 is over 2 µM.

On to `CCCCCCCCCCc1ccc2oc(N[C@@H]3CNC[C@@H]3F)nc2c1` [Compound 13l, 5-decyl-N-((3R,4S)-4-fluoropyrrolidin-3-yl)benzo[d]oxazol-2-amine hydrochloride], for which the IC50 was at most 2 µM.

On to `CCCCCCCCCOc1ccc(NC(=O)CCCN)cc1C(F)(F)F` [Compound 2m, 4-amino-N-(4-(nonyloxy)-3-(trifluoromethyl)phenyl)butanamide hydrochloride], for which the IC50 is over 2 µM.

On to `CCCCCCCCCCc1cccc2oc(NCCN)nc12` [Compound 13w, N^1-decylbenzo[d]oxazol-2-yl)ethane-1,2-diamine hydrochloride], for which the IC50 was over 2 µM.

Regarding `CCCCCCCCCCc1ccc(C(=O)NC2CCNCC2)cc1` [Compound 39, 4-decyl-N-(piperidin-4-yl)benzamide Hydrochloride], the 50% inhibitory concentration (IC50) is at most 2 µM.

In the case of `CCCCCCCCCCc1ccc(NC(=O)C[C@H]2CCNC2)cc1` [Compound 2j, (R)-N-decylphenyl)-2-(pyrrolidin-3-yl)acetamide Hydrochloride], the IC50 is at most 2 µM.

On to `CCCCCCCCCCc1ccc(NC(=O)CCCN(C)C)cc1` [Compound 2p, 4-(dimethylamino)-N-(4-decylphenyl)butanamide Hydrochloride], for which the IC50 was over 2 µM.

On to `CCCCCCCCCCc1ccc2oc(N3CCNCC3)nc2c1` [Compound 13p, 5-Decyl(piperazin-1-yl)benzo[d]oxazole Hydrochloride], for which the IC50 is over 2 µM.

As to `CCCCCCCCCCc1ccc2oc(CCCN)nc2c1` [Compound 8b, 3-Decylbenzo[d]oxazol-2-yl)propan-1-amine Hydrochloride], the IC50 was over 2 µM.

As for `CCCCCCCCCCc1ccc(NC(=O)N2CCNCC2)cc1` [Compound 35, N-decylphenyl)piperazine-1-carboxamide Hydrochloride], the IC50 was at most 2 µM.

Consider `CCCCCCCCCCc1ccc(NC(=O)[C@@H]2CCNC2)cc1` [Compound 2b], for which the 50% inhibitory concentration (IC50) is over 2 µM.

For `CCCCCCCCCCc1ccc2oc(NCCCN)nc2c1` [Compound 13f, hydrochloride], the IC50 was over 2 µM.

Take `CCCCCCCCCCc1ccc(C(=O)N2CCNCC2)cc1` [Compound 26c, Decylphenyl)(piperazin-1-yl)methanone Hydrochloride]: the IC50 is at most 2 µM.

On to `CCCCCCCCCCc1ccc(NC(=O)NCCCN)cc1` [Compound 20b, 1-Aminopropyl)-3-(4-decylphenyl)urea Hydrochloride], for which the IC50 is at most 2 µM.

`CCCCCCCCCCc1cccc2nc(NCCCN)oc12` [Compound 13v, N^1-decylbenzo[d]oxazol-2-yl)propane-1,3-diamine hydrochloride]: the IC50 is over 2 µM.

Turning to `CCCCCCCCCCc1ccc(NC(=O)OCCN)cc1` [Compound 23a, 2-Aminoethyl (4-decylphenyl)carbamate Hydrochloride], the IC50 is over 2 µM.

Turning to `CCCCCCCCCCc1ccc(NC(=O)CCCNC(=N)N)cc1` [Compound 4c, N-decylphenyl)-4-guanidinobutanamide Hydrochloride], the IC50 was at most 2 µM.

As to `CCCCCCCCCCc1ccc(NC(=O)O[C@H]2CCNC2)cc1` [Compound 23b, (S)-pyrrolidin-3-yl (4-decylphenyl)carbamate Hydrochloride], the IC50 is over 2 µM.

With `CCCCCCCCCCc1ccc2oc(NCCCCCN)nc2c1` [Compound 13h, N^1-decylbenzo[d]oxazol-2-yl)pentane-1,5-diamine hydrochloride], the IC50 is over 2 µM.

For the compound `CCCCCCCCCCc1ccc(NC(=O)C[C@@H]2CCNC2)cc1` [Compound 2i, (S)-N-decylphenyl)-2-(pyrrolidin-3-yl)acetamide Hydrochloride], the IC50 is at most 2 µM.

Turning to `CCCCCCCCCCc1ccc(NC(=O)N2CCC(N)CC2)cc1` [Compound 20a, 4-amino-N-(4-decylphenyl)piperidine-1-carboxamide Hydrochloride], the IC50 is at most 2 µM.

On to `CCCCCCCCCCc1ccc(NC(=O)CCCCN)cc1` [Compound 2e, 5-amino-N-(4-decylphenyl)pentanamide Hydrochloride], for which the 50% inhibitory concentration (IC50) was over 2 µM.

On to `CCCCCCCCCCc1ccc2oc(NCCCCN)nc2c1` [Compound 13g, N^1-decylbenzo[d]oxazol-2-yl)butane-1,4-diamine carbamate hydrochloride], for which the IC50 was over 2 µM.

Turning to `CCCCCCCCCCCc1ccc2oc(NCCN)nc2c1` [Compound 13d, N^1-undecylbenzo[d]oxazol-2-yl)ethane-1,2-diamine hydrochloride], the IC50 was over 2 µM.

Source of the values: patent US20230331683A1, “INHIBITORS OF SPINSTER HOMOLOG 2 (SPNS2) FOR USE IN THERAPY” (University of Virginia Patent Foundation, priority 2020, published 2023).
